{
  "source": "PubChem BioAssay (NCI)",
  "experiment_in_all_cases": "NCI tumour cell line growth inhibition, 48 h",
  "key": {"MDA-MB-435": {"tested_on": "MDA-MB-435"}, "U251 CNS": {"tested_on": "U251 CNS"}, "UACC-257 melanoma": {"tested_on": "UACC-257 melanoma"}, "LOX IMVI melanoma": {"tested_on": "LOX IMVI melanoma"}, "SK-MEL-2 melanoma": {"tested_on": "SK-MEL-2 melanoma"}, "M14 melanoma": {"tested_on": "M14 melanoma"}, "A498 renal": {"tested_on": "A498 renal"}, "ACHN renal": {"tested_on": "ACHN renal"}, "OVCAR-8 ovarian": {"tested_on": "OVCAR-8 ovarian"}, "HCT-15 colon": {"tested_on": "HCT-15 colon"}, "SW-620 colon": {"tested_on": "SW-620 colon"}, "SK-MEL-5 melanoma": {"tested_on": "SK-MEL-5 melanoma"}, "A549 NSCLC": {"tested_on": "A549 NSCLC"}, "NCI-H460 lung": {"tested_on": "NCI-H460 lung"}, "MCF7 breast": {"tested_on": "MCF7 breast"}, "MOLT-4 leukemia": {"tested_on": "MOLT-4 leukemia"}, "SNB-19 CNS": {"tested_on": "SNB-19 CNS"}, "MDA-MB-231 breast": {"tested_on": "MDA-MB-231 breast"}, "CCRF-CEM leukemia": {"tested_on": "CCRF-CEM leukemia"}, "HCC-2998 colon": {"tested_on": "HCC-2998 colon"}, "SNB-75 CNS": {"tested_on": "SNB-75 CNS"}, "OVCAR-5 ovarian": {"tested_on": "OVCAR-5 ovarian"}, "HOP-62 NSCLC": {"tested_on": "HOP-62 NSCLC"}, "DU-145 prostate": {"tested_on": "DU-145 prostate"}, "NCI-H226 lung": {"tested_on": "NCI-H226 lung"}, "PC-3 prostate": {"tested_on": "PC-3 prostate"}, "EKVX NSCLC": {"tested_on": "EKVX NSCLC"}, "SN12C renal": {"tested_on": "SN12C renal"}, "NCI-H522 lung": {"tested_on": "NCI-H522 lung"}},
  "note": "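96-well plates; 48 h exposure; 5 concentrations. Endpoints by linear interpolation between flanking doses. Not reached: highest tested concentration assigned. GI50: concentration for 50% inhibition of growth. TGI is the concentration that stops growth completely.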",
  "data": [
    {"molecule": "COc1ccc(CCOc2cc3c(cc2OC)CCN(C(=O)NCc2cocn2)C3c2ccc(C)cc2C)cc1", "note": "(configuration not stated)", "values": [
      {"measurement": "TGI", "setting": "MDA-MB-435", "value": 919, "unit": "nM"},
      {"measurement": "GI50", "setting": "U251 CNS", "value": 605, "unit": "nM"},
      {"measurement": "TGI", "setting": "U251 CNS", "value": 4530, "unit": "nM"},
      {"measurement": "GI50", "setting": "UACC-257 melanoma", "value": 1390, "unit": "nM"},
      {"measurement": "TGI", "setting": "UACC-257 melanoma", "value": 19800, "unit": "nM"},
      {"measurement": "GI50", "setting": "LOX IMVI melanoma", "value": 388, "unit": "nM"},
      {"measurement": "TGI", "setting": "LOX IMVI melanoma", "value": 4610, "unit": "nM"},
      {"measurement": "GI50", "setting": "SK-MEL-2 melanoma", "value": 946, "unit": "nM"},
      {"measurement": "TGI", "setting": "SK-MEL-2 melanoma", "value": 3890, "unit": "nM"},
      {"measurement": "GI50", "setting": "M14 melanoma", "value": 765, "unit": "nM"},
      {"measurement": "TGI", "setting": "M14 melanoma", "value": 5740, "unit": "nM"},
      {"measurement": "GI50", "setting": "A498 renal", "value": 1480, "unit": "nM"},
      {"measurement": "TGI", "setting": "A498 renal", "value": 6430, "unit": "nM"},
      {"measurement": "GI50", "setting": "ACHN renal", "value": 628, "unit": "nM"},
      {"measurement": "TGI", "setting": "ACHN renal", "value": 8890, "unit": "nM"},
      {"measurement": "GI50", "setting": "OVCAR-8 ovarian", "value": 358, "unit": "nM"},
      {"measurement": "TGI", "setting": "OVCAR-8 ovarian", "value": 10100, "unit": "nM"},
      {"measurement": "GI50", "setting": "HCT-15 colon", "value": 407, "unit": "nM"},
      {"measurement": "TGI", "setting": "HCT-15 colon", "value": "> 37500", "unit": "nM"},
      {"measurement": "GI50", "setting": "SW-620 colon", "value": 507, "unit": "nM"},
      {"measurement": "TGI", "setting": "SW-620 colon", "value": "> 100000", "unit": "nM"},
      {"measurement": "GI50", "setting": "SK-MEL-5 melanoma", "value": 509, "unit": "nM"},
      {"measurement": "TGI", "setting": "SK-MEL-5 melanoma", "value": 1390, "unit": "nM"},
      {"measurement": "GI50", "setting": "A549 NSCLC", "value": 1080, "unit": "nM"},
      {"measurement": "TGI", "setting": "A549 NSCLC", "value": "> 100000", "unit": "nM"},
      {"measurement": "GI50", "setting": "NCI-H460 lung", "value": 374, "unit": "nM"},
      {"measurement": "TGI", "setting": "NCI-H460 lung", "value": 3810, "unit": "nM"},
      {"measurement": "GI50", "setting": "MCF7 breast", "value": 452, "unit": "nM"},
      {"measurement": "TGI", "setting": "MCF7 breast", "value": "> 38700", "unit": "nM"},
      {"measurement": "GI50", "setting": "MOLT-4 leukemia", "value": 537, "unit": "nM"},
      {"measurement": "TGI", "setting": "MOLT-4 leukemia", "value": "> 24800", "unit": "nM"},
      {"measurement": "GI50", "setting": "SNB-19 CNS", "value": 1600, "unit": "nM"},
      {"measurement": "TGI", "setting": "SNB-19 CNS", "value": 21900, "unit": "nM"},
      {"measurement": "GI50", "setting": "MDA-MB-231 breast", "value": 834, "unit": "nM"},
      {"measurement": "TGI", "setting": "MDA-MB-231 breast", "value": 6490, "unit": "nM"},
      {"measurement": "GI50", "setting": "CCRF-CEM leukemia", "value": 458, "unit": "nM"},
      {"measurement": "TGI", "setting": "CCRF-CEM leukemia", "value": 9660, "unit": "nM"},
      {"measurement": "GI50", "setting": "HCC-2998 colon", "value": 1320, "unit": "nM"},
      {"measurement": "TGI", "setting": "HCC-2998 colon", "value": "> 35000", "unit": "nM"},
      {"measurement": "GI50", "setting": "SNB-75 CNS", "value": 761, "unit": "nM"},
      {"measurement": "TGI", "setting": "SNB-75 CNS", "value": 5260, "unit": "nM"},
      {"measurement": "GI50", "setting": "OVCAR-5 ovarian", "value": 1350, "unit": "nM"},
      {"measurement": "TGI", "setting": "OVCAR-5 ovarian", "value": "> 100000", "unit": "nM"},
      {"measurement": "GI50", "setting": "HOP-62 NSCLC", "value": 1020, "unit": "nM"},
      {"measurement": "TGI", "setting": "HOP-62 NSCLC", "value": 17100, "unit": "nM"},
      {"measurement": "GI50", "setting": "DU-145 prostate", "value": 790, "unit": "nM"},
      {"measurement": "TGI", "setting": "DU-145 prostate", "value": 5890, "unit": "nM"},
      {"measurement": "GI50", "setting": "NCI-H226 lung", "value": 1020, "unit": "nM"},
      {"measurement": "TGI", "setting": "NCI-H226 lung", "value": 5160, "unit": "nM"},
      {"measurement": "GI50", "setting": "PC-3 prostate", "value": 631, "unit": "nM"},
      {"measurement": "TGI", "setting": "PC-3 prostate", "value": "> 35100", "unit": "nM"},
      {"measurement": "GI50", "setting": "EKVX NSCLC", "value": 3140, "unit": "nM"},
      {"measurement": "TGI", "setting": "EKVX NSCLC", "value": "> 100000", "unit": "nM"},
      {"measurement": "GI50", "setting": "SN12C renal", "value": 831, "unit": "nM"},
      {"measurement": "TGI", "setting": "SN12C renal", "value": 4850, "unit": "nM"},
      {"measurement": "GI50", "setting": "NCI-H522 lung", "value": 243, "unit": "nM"},
      {"measurement": "TGI", "setting": "NCI-H522 lung", "value": 634, "unit": "nM"}
    ]}
  ]
}
